The structures appear in SMILES notation.

In assay [1] the target is T1, human TRPV1 (hTRPV1) (Homo sapiens, UniProt Q8NER1).
T1 construct: host or cells: HEK (PrecisION hTRPV1-HEK recombinant cell line)
The assay is described as follows: Ca2+ influx assay, antagonism against capsaicin in hTRPV1-HEK recombinant cells. Type of assay: cell-based. The note with it: capsaicin 10 nM as activator, Fluo4-NW fluorescence, read-out: hTRPV1 IC50 [cap].

Assay [2] deals with T1, human TRPV1 (hTRPV1). The assay is described as follows: Evaluation of human pH inhibitory activity in hTRPV1-HEK recombinant cells. It is filed as cell-based. To be noted: inhibition of activation at final pH 6.0, test substance 3 μM. The procedure: Evaluation of Human pH Inhibitory Activity
PrecisION™ hTRPV1-HEK recombinant cells (CYL3063) were purchased from Millipore and used. After culturing the above cells under the conditions of 37° C. and 5% CO2, the cells were inoculated in a 96-well plate at the density of 5×10^4 cells/well, followed by culture for 16 hours. Then, the medium was removed and 100 uL of a staining solution was put into each well, followed by culture for 30 minutes under the conditions of 37° C. and 5% CO2. After 30 minutes, all of the existing staining solution was removed and replaced with 100 uL of HBSS. Thereafter, the cells were acclimatized to room temperature for 15 minutes, and the test substances (example compounds and comparative example compounds of the present invention) were added to each well, followed by culture at room temperature for 15 minutes. Then, the final pH was adjusted to 6.0 using MES, and fluorescence was measured (ex485/em535). In the pH assay, the efficacy of the drug was evaluated using BCTC as a TRPV1 antagonist.

T1 sequence (Q8NER1 whole entry): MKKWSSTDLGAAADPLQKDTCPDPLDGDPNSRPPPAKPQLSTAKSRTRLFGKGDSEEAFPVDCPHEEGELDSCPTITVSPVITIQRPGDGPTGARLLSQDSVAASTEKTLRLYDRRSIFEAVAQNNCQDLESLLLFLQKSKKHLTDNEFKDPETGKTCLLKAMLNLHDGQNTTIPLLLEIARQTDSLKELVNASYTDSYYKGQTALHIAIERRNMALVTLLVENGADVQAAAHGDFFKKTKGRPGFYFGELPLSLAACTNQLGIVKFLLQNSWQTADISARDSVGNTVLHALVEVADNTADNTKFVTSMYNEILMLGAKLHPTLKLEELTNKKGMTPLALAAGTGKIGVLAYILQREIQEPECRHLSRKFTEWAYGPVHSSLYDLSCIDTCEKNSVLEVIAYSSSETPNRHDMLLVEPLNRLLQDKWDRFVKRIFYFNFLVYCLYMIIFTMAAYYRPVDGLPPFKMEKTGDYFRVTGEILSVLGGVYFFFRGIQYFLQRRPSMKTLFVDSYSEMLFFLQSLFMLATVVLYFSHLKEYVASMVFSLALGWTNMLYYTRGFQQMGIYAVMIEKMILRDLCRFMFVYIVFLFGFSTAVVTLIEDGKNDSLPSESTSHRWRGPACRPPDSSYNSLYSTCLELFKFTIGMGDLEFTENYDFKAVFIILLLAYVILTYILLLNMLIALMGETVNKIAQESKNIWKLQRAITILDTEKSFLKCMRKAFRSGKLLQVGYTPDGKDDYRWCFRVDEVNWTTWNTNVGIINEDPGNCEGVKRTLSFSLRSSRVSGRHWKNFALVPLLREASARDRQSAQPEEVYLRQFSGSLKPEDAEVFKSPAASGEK

Consider `O=C(/C=C/c1sc(C(F)(F)F)nc1-c1cccc(Cl)c1)Nc1cccc2[nH]c(=O)[nH]c12` [Example 54, (E)-3-(4-(3-chlorophenyl)-2-(trifluoromethyl)thiazol-5-yl)-N-(2-oxo-2,3-dihydro-1H-benzo[d]imidazol-4-yl)acrylamide], for which, at human TRPV1 (hTRPV1) [1], the concentration for half-maximal inhibition (IC50) was determined as 55.7 nM. The “hTRPV1 pH (%, 3 μM)” value at human TRPV1 (hTRPV1) [2] came out at 63.44%.
Consider `CCCCOc1nc(C(F)(F)F)ccc1/C=C/C(=O)Nc1cccc2[nH]c(=O)[nH]c12` [Example 8, (E)-3-(2-butoxy-6-(trifluoromethyl)pyridin-3-yl)-N-(2-oxo-2,3-dihydro-1H-benzo[d]imidazol-4-yl)acrylamide], for which the IC50 at human TRPV1 (hTRPV1) [1] came to 27.3 nM. The “hTRPV1 pH (%, 3 μM)” value on human TRPV1 (hTRPV1) [2] is recorded as 81.24%.
Regarding `O=C(/C=C/c1ccc(C(F)(F)F)nc1OCC(F)(F)F)Nc1cccc2[nH]c(=O)[nH]c12` [Example 14, (E)-N-(2-oxo-2,3-dihydro-1H-benzo[d]imidazol-4-yl)-3-(2-(2,2,2-trifluoroethoxy)-6-(trifluoromethyl)pyridin-3-yl)acrylamide], the IC50 at human TRPV1 (hTRPV1) [1] turned out to be 34.5 nM. In addition, at human TRPV1 (hTRPV1) [2], the “hTRPV1 pH (%, 3 μM)” value stood at 94.03%.
In the case of `CC(F)(F)c1ccc(/C=C/C(=O)Nc2cccc3[nH]c(=O)[nH]c23)c(OCC2CC2)n1` [Example 22, (E)-3-(2-(cyclopropylmethoxy)-6-(1,1-difluoroethyl)pyridin-3-yl)-N-(2-oxo-2,3-dihydro-1H-benzo[d]imidazol-4-yl)acrylamide], the IC50 at human TRPV1 (hTRPV1) [1] was 31.2 nM. At human TRPV1 (hTRPV1) [2], the “hTRPV1 pH (%, 3 μM)” value worked out at 90.86%.
Turning to `CCCN(CCC)c1nc(C(F)(F)F)ccc1/C=C/C(=O)Nc1cccc2[nH]c(=O)[nH]c12` [Example 7, (E)-3-(2-(dipropylamino)-6-(trifluoromethyl)pyridin-3-yl)-N-(2-oxo-2,3-dihydro-1H-benzo[d]imidazol-4-yl)acrylamide], at human TRPV1 (hTRPV1) [1], the IC50 turned out to be 23.3 nM. At human TRPV1 (hTRPV1) [2], the “hTRPV1 pH (%, 3 μM)” value amounted to 89.87%.
With `CCC1CCN(c2nc(C(F)(F)F)ccc2/C=C/C(=O)Nc2cccc3[nH]c(=O)[nH]c23)CC1` [Example 2, (E)-3-(2-(4-ethylpiperidin-1-yl)-6-(trifluoromethyl)pyridin-3-yl)-N-(2-oxo-2,3-dihydro-1H-benzo[d]imidazol-4-yl)acrylamide], the half-inhibitory concentration (IC50) at human TRPV1 (hTRPV1) [1] is 28.8 nM. The “hTRPV1 pH (%, 3 μM)” value at human TRPV1 (hTRPV1) [2] is 86.72%.
In the case of `CC(C)(C)C#Cc1nc(C(F)(F)F)ccc1/C=C/C(=O)Nc1cccc2[nH]c(=O)[nH]c12` [Example 39, (E)-3-(2-(3,3-dimethyl-1-butyn-1-yl)-6-(trifluoromethyl)pyridin-3-yl)-N-(2-oxo-2,3-dihydro-1H-benzo[d]imidazol-4-yl)acrylamide], on human TRPV1 (hTRPV1) [1], the IC50 is 35.4 nM. In addition, at human TRPV1 (hTRPV1) [2], the “hTRPV1 pH (%, 3 μM)” value stood at 67.89%.
Take `O=C(/C=C/c1ccc(C(F)(F)F)nc1-c1ccco1)Nc1cccc2[nH]c(=O)[nH]c12` [Example 36, (E)-3-(2-(furan-2-yl)-6-(trifluoromethyl)pyridin-3-yl)-N-(2-oxo-2,3-dihydro-1H-benzo[d]imidazol-4-yl)acrylamide]: the 50% inhibitory concentration (IC50) on human TRPV1 (hTRPV1) [1] is 11 nM. Also, the “hTRPV1 pH (%, 3 μM)” value at human TRPV1 (hTRPV1) [2] is 100.46%.
As to `O=C(/C=C/c1cc(C(F)(F)F)nn1-c1cccc(Cl)c1)Nc1cccc2[nH]c(=O)[nH]c12` [Example 47, (E)-3-(1-(3-chlorophenyl)-3-(trifluoromethyl)-1H-pyrazol-5-yl)-N-(2-oxo-2,3-dihydro-1H-benzo[d]imidazol-4-yl)acrylamide], at human TRPV1 (hTRPV1) [1], the IC50 is 15.9 nM. For the same compound, the “hTRPV1 pH (%, 3 μM)” value on human TRPV1 (hTRPV1) [2] is on record as 37.26%.
For `O=C(/C=C/c1ccc(C(F)(F)F)nc1-c1cccc(Cl)c1)Nc1cccc2[nH]c(=O)[nH]c12` [Example 31, (E)-3-(2-(3-chlorophenyl)-6-(trifluoromethyl)pyridin-3-yl)-N-(2-oxo-2,3-dihydro-1H-benzo[d]imidazol-4-yl)acrylamide] the same measures were 26 nM and 82.34%.
Turning to `O=C(/C=C/c1ccc(C(F)(F)F)nc1-c1ccc(F)c(Cl)c1)Nc1cccc2[nH]c(=O)[nH]c12` [Example 33, (E)-3-(2-(3-chloro-4-fluorophenyl)-6-(trifluoromethyl)pyridin-3-yl)-N-(2-oxo-2,3-dihydro-1H-benzo[d]imidazol-4-yl)acrylamide], the IC50 at human TRPV1 (hTRPV1) [1] worked out at 27.4 nM. Moreover, the “hTRPV1 pH (%, 3 μM)” value at human TRPV1 (hTRPV1) [2] is on record as 69.89%.
As for `O=C(/C=C/c1ccc(C(F)(F)F)nc1-c1ccc(F)cc1)Nc1cccc2[nH]c(=O)[nH]c12` [Example 34, (E)-3-(2-(4-fluorophenyl)-6-(trifluoromethyl)pyridin-3-yl)-N-(2-oxo-2,3-dihydro-1H-benzo[d]imidazol-4-yl)acrylamide], at human TRPV1 (hTRPV1) [1], the IC50 came out at 11.1 nM. Moreover, the “hTRPV1 pH (%, 3 μM)” value on human TRPV1 (hTRPV1) [2] is 37.85%.
For `CC(C)COc1nc(C(F)(F)F)ccc1CCC(=O)Nc1cccc2[nH]c(=O)[nH]c12` [Example 59, 3-(2-isobutoxy-6-(trifluoromethyl)pyridin-3-yl)-N-(2-oxo-2,3-dihydro-1H-benzo[d]imidazol-4-yl)propaneamide], the IC50 on human TRPV1 (hTRPV1) [1] is 40.7 nM. For the same compound, at human TRPV1 (hTRPV1) [2], the “hTRPV1 pH (%, 3 μM)” value is 59.32%.
Take `CCN(CC)c1nc(C(F)(F)F)ccc1/C=C/C(=O)Nc1cccc2[nH]c(=O)[nH]c12` [Example 6, (E)-3-(2-(diethylamino)-6-(trifluoromethyl)pyridin-3-yl)-N-(2-oxo-2,3-dihydro-1H-benzo[d]imidazol-4-yl)acrylamide]: the 50% inhibitory concentration (IC50) on human TRPV1 (hTRPV1) [1] turned out to be 10.7 nM. Further, at human TRPV1 (hTRPV1) [2], the “hTRPV1 pH (%, 3 μM)” value was 76.92%.
Turning to `O=C(/C=C/c1ccc(C(F)(F)F)nc1OCC1CCC1)Nc1cccc2[nH]c(=O)[nH]c12` [Example 25, (E)-3-(2-(cyclobutylmethoxy)-6-(trifluoromethyl)pyridin-3-yl)-N-(2-oxo-2,3-dihydro-1H-benzo[d]imidazol-4-yl)acrylamide], the half-maximal inhibitory concentration (IC50) at human TRPV1 (hTRPV1) [1] stood at 34.1 nM. Besides, the “hTRPV1 pH (%, 3 μM)” value at human TRPV1 (hTRPV1) [2] was determined as 89.76%.
For `CC(C)COc1cc(C(F)(F)F)ccc1/C=C/C(=O)Nc1cccc2[nH]c(=O)[nH]c12` [Example 42, (E)-3-(2-isobutoxy-4-(trifluoromethyl)phenyl)-N-(2-oxo-2,3-dihydro-1H-benzo[d]imidazol-4-yl)acrylamide], on human TRPV1 (hTRPV1) [1], the IC50 is 35.4 nM. Besides, the “hTRPV1 pH (%, 3 μM)” value on human TRPV1 (hTRPV1) [2] amounted to 78.89%.
The corresponding values for `CC(C)c1cccc(-n2nc(C(F)(F)F)cc2/C=C/C(=O)Nc2cccc3[nH]c(=O)[nH]c23)c1` [Example 50, (E)-3-(1-(3-isopropylphenyl)-3-(trifluoromethyl)-1H-pyrazol-5-yl)-N-(2-oxo-2,3-dihydro-1H-benzo[d]imidazol-4-yl)acrylamide] are 41.3 nM and 34.22%.
For the compound `O=C(/C=C/c1ccc(C2CC2)cc1OCC1CC1)Nc1cccc2[nH]c(=O)[nH]c12` [Example 46, (E)-3-(4-cyclopropyl-2-(cyclopropylmethoxy)phenyl)-N-(2-oxo-2,3-dihydro-1H-benzo[d]imidazol-4-yl)acrylamide], at human TRPV1 (hTRPV1) [1], the IC50 came to 72.9 nM. In addition, the “hTRPV1 pH (%, 3 μM)” value on human TRPV1 (hTRPV1) [2] was 57.38%.
`O=C(/C=C/c1ccc(C(F)(F)F)nc1-c1cccc(F)c1)Nc1cccc2[nH]c(=O)[nH]c12` [Example 30, (E)-3-(2-(3-fluorophenyl)-6-(trifluoromethyl)pyridin-3-yl)-N-(2-oxo-2,3-dihydro-1H-benzo[d]imidazol-4-yl)acrylamide]: on human TRPV1 (hTRPV1) [1], the IC50 worked out at 14.2 nM. In addition, the “hTRPV1 pH (%, 3 μM)” value at human TRPV1 (hTRPV1) [2] is 48.62%.
Turning to `O=C(/C=C/c1ccc(C(F)(F)F)nc1OC1CCCC1)Nc1cccc2[nH]c(=O)[nH]c12` [Example 12, (E)-3-(2-(cyclopentyloxy)-6-(trifluoromethyl)pyridin-3-yl)-N-(2-oxo-2,3-dihydro-1H-benzo[d]imidazol-4-yl)acrylamide], the IC50 at human TRPV1 (hTRPV1) [1] worked out at 31.5 nM. Moreover, the “hTRPV1 pH (%, 3 μM)” value on human TRPV1 (hTRPV1) [2] is on record as 81.25%.
The corresponding values for `CC1CCN(c2nc(C(F)(F)F)ccc2/C=C/C(=O)Nc2cccc3[nH]c(=O)[nH]c23)CC1` [Example 1, (E)-3-(2-(4-methylpiperidin-1-yl)-6-(trifluoromethyl)pyridin-3-yl)-N-(2-oxo-2,3-dihydro-1H-benzo[d]imidazol-4-yl)acrylamide] are 37 nM and 78.62%.
For `O=C(/C=C/c1ccc(C(F)(F)Cl)nc1OCC1CC1)Nc1cccc2[nH]c(=O)[nH]c12` [Example 17, (E)-3-(6-(chlorodifluoromethyl)-2-(cyclopropylmethoxy)pyridin-3-yl)-N-(2-oxo-2,3-dihydro-1H-benzo[d]imidazol-4-yl)acrylamide] the same measures were 56.9 nM and 83.20%.
Consider `Cc1cccc(-n2nc(C(F)(F)F)cc2/C=C/C(=O)Nc2cccc3[nH]c(=O)[nH]c23)c1` [Example 48, (E)-N-(2-oxo-2,3-dihydro-1H-benzo[d]imidazol-4-yl)-3-(1-(m-tolyl)-3-(trifluoromethyl)-1H-pyrazol-5-yl)acrylamide], for which, at human TRPV1 (hTRPV1) [1], the half-maximal inhibitory concentration (IC50) came out at 9.95 nM. For the same compound, the “hTRPV1 pH (%, 3 μM)” value on human TRPV1 (hTRPV1) [2] was 29.43%.
The corresponding values for `O=C(/C=C/c1cc(C(F)(F)F)nn1-c1ccc(F)c(Cl)c1)Nc1cccc2[nH]c(=O)[nH]c12` [Example 49, (E)-3-(1-(3-chloro-4-fluorophenyl)-3-(trifluoromethyl)-1H-pyrazol-5-yl)-N-(2-oxo-2,3-dihydro-1H-benzo[d]imidazol-4-yl)acrylamide] are 19.9 nM and 21.37%.

Broadly, the IC50 is the concentration that gives 50% inhibition.

These data come from patent publication US12653814B2, “Benzimidazolone-based cinnamamide derivative as TRPV1 antagonist and pharmaceutical composition for treatment or prevention of pain containing same as active ingredient” (JMACKEM CO., LTD, priority 2020, dated 2026).
